Data reported in PubChem BioAssay AID248 (DTP/NCI, 2004).
Where “and” joins values, the source holds several entries; their conditions need not be identical. Identical values can stand only once. Toxic doses and inconclusive results are not listed. Rule as the data show it: active = T/C of 150% or more; inactive = T/C below 125%.

Test system: L1210 leukemia ip in BDF1 mice, survival T/C
Assay: NCI In Vivo Anticancer Drug Screen. Data for tumor model L1210 Leukemia (intraperitoneal) in B6D2F1 (BDF1) mice
Settings: higher = longer survival
Summary of the method: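 Value reflects the ratio of survival in compound-treated mice to survival in vehicle-treated controls, with both groups carrying the same transplanted tumor.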

Measured: T/C

O=c1[nH]cc(F)c(=O)[nH]1
inactive: endpoint: mean survival time, dose: 0.06 mg/kg/injection, schedule: Q#A X Z (ip), vehicle: carboxymethylcellulose (CMC) 103 % of control | endpoint: mean survival time, dose: 0.12 mg/kg/injection, schedule: Q#A X Z (ip), vehicle: carboxymethylcellulose (CMC) 108 % of control | endpoint: mean survival time, dose: 0.25 mg/kg/injection, schedule: Q#A X Z (ip), vehicle: carboxymethylcellulose (CMC) 106 % of control | endpoint: mean survival time, dose: 0.5 mg/kg/injection, schedule: Q#A X Z (ip), vehicle: carboxymethylcellulose (CMC) 112 % of control | endpoint: mean survival time, dose: 0.63 mg/kg/injection, schedule: Q01DX015 (ip), vehicle: water 100 % of control | endpoint: mean survival time, dose: 0.75 mg/kg/injection, schedule: Q03DX006 (ip), vehicle: carboxymethylcellulose (CMC) 105 % of control | endpoint: mean survival time, dose: 1.0 mg/kg/injection, schedule: Q01DX009 (ip), vehicle: other 105 % of control | endpoint: mean survival time, dose: 1.4 mg/kg/injection, schedule: Q01DX Z (ip), vehicle: saline 109 % of control | endpoint: mean survival time, dose: 2.0 mg/kg/injection, schedule: Q01DX005 (iv), vehicle: carboxymethylcellulose (CMC) 108 % of control | endpoint: mean survival time, dose: 2.0 mg/kg/injection, schedule: Q01DX Z (im), vehicle: carboxymethylcellulose (CMC) 108 % of control | endpoint: mean survival time, dose: 2.0 mg/kg/injection, schedule: Q01DX Z (ip), vehicle: carboxymethylcellulose (CMC) 108 % of control | endpoint: mean survival time, dose: 2.5 mg/kg/injection, schedule: Q01DX015 (ip), vehicle: water 107 % of control | endpoint: mean survival time, dose: 4.0 mg/kg/injection, schedule: Q01DX005 (iv), vehicle: carboxymethylcellulose (CMC) 111 % of control | endpoint: mean survival time, dose: 4.8 mg/kg/injection, schedule: Q04DX002 (ip), vehicle: saline 93 % of control and 101 % of control | endpoint: mean survival time, dose: 5.0 mg/kg/injection, schedule: Q01DX006 (ip), vehicle: saline 110 % of control | endpoint: mean survival time, dose: 5.0 mg/kg/injection, schedule: Q01DX010 (ip), vehicle: saline 107 % of control | endpoint: mean survival time, dose: 8.0 mg/kg/injection, schedule: Q01DX005 (iv), vehicle: carboxymethylcellulose (CMC) 108 % of control | endpoint: mean survival time, dose: 8.4 mg/kg/injection, schedule: Q01DX009 (ip), vehicle: saline 102 % of control | endpoint: mean survival time, dose: 8.4 mg/kg/injection, schedule: Q01DX Z (ip), vehicle: saline 102 % of control | endpoint: mean survival time, dose: 9.5 mg/kg/injection, schedule: Q04DX002 (ip), vehicle: saline 101 % of control and 102 % of control | endpoint: mean survival time, dose: 10.0 mg/kg/injection, schedule: Q01DX009 (oral), vehicle: saline 111 % of control | endpoint: mean survival time, dose: 12.5 mg/kg/injection, schedule: Q04DX003 (ip), vehicle: saline 98 % of control | endpoint: mean survival time, dose: 13.3 mg/kg/injection, schedule: Q04DX003 (ip), vehicle: saline 110 % of control | endpoint: mean survival time, dose: 16.0 mg/kg/injection, schedule: Q#A X Z (ip), vehicle: carboxymethylcellulose (CMC) 108 % of control | endpoint: mean survival time, dose: 19.0 mg/kg/injection, schedule: Q04DX002 (ip), vehicle: saline 101 % of control | endpoint: mean survival time, dose: 27.5 mg/kg/injection, schedule: Q01DX012 (sc), vehicle: other 110 % of control | endpoint: mean survival time, dose: 30.0 mg/kg/injection, schedule: Q01DX009 (ip), vehicle: none 109 % of control | endpoint: mean survival time, dose: 30.0 mg/kg/injection, schedule: Q01DX009 (ip), vehicle: saline 101 % of control and 109 % of control | endpoint: mean survival time, dose: 30.0 mg/kg/injection, schedule: Q01DX Z (ip), vehicle: saline 97 % of control | endpoint: mean survival time, dose: 30.0 mg/kg/injection, schedule: Q## X Z (ip), vehicle: saline 98 % of control | endpoint: mean survival time, dose: 39.0 mg/kg/injection, schedule: Q01DX009 (ip), vehicle: saline 109 % of control | endpoint: mean survival time, dose: 39.0 mg/kg/injection, schedule: Q01DX Z (ip), vehicle: saline 96 % of control and 109 % of control | endpoint: mean survival time, dose: 40.0 mg/kg/injection, schedule: Q01DX010 (ip), vehicle: saline 100 % of control | endpoint: mean survival time, dose: 40.0 mg/kg/injection, schedule: Q01DX Z (ip), vehicle: methylcellulose (MC) 103 % of control | endpoint: mean survival time, dose: 45.0 mg/kg/injection, schedule: Q## X006 (ip), vehicle: saline 95 % of control | endpoint: mean survival time, dose: 50.0 mg/kg/injection, schedule: Q01DX Z (ip), vehicle: methylcellulose (MC) 94 % of control | endpoint: mean survival time, dose: 52.0 mg/kg/injection, schedule: Q01DX009 (ip), vehicle: saline 111 % of control | endpoint: mean survival time, dose: 64.0 mg/kg/injection, schedule: Q01DX Z (im), vehicle: carboxymethylcellulose (CMC) 96 % of control | endpoint: mean survival time, dose: 64.0 mg/kg/injection, schedule: Q01DX Z (oral), vehicle: carboxymethylcellulose (CMC) 94 % of control | endpoint: mean survival time, dose: 64.0 mg/kg/injection, schedule: Q01DX Z (sc), vehicle: carboxymethylcellulose (CMC) 105 % of control | endpoint: mean survival time, dose: 65.0 mg/kg/injection, schedule: Q01DX009 (ip), vehicle: saline 93 % of control | endpoint: mean survival time, dose: 67.0 mg/kg/injection, schedule: Q02DX010 (ip), vehicle: other 102 % of control | endpoint: mean survival time, dose: 67.1 mg/kg/injection, schedule: Q01DX005 (sc), vehicle: other 100 % of control | endpoint: mean survival time, dose: 68.0 mg/kg/injection, schedule: Q02DX010 (ip), vehicle: carboxymethylcellulose (CMC) 108 % of control | endpoint: mean survival time, dose: 68.0 mg/kg/injection, schedule: Q02DX010 (ip), vehicle: other 98 % of control | endpoint: mean survival time, dose: 80.0 mg/kg/injection, schedule: Q01DX005 (ip), vehicle: Klucel (hydroxypropylcellulose) (HPC) 97 % of control | endpoint: mean survival time, dose: 80.0 mg/kg/injection, schedule: Q01DX005 (ip), vehicle: acetone 100 % of control | endpoint: mean survival time, dose: 80.0 mg/kg/injection, schedule: Q01DX005 (ip), vehicle: other 100 % of control | endpoint: mean survival time, dose: 80.0 mg/kg/injection, schedule: Q01DX006 (ip), vehicle: saline 103 % of control | endpoint: mean survival time, dose: 80.0 mg/kg/injection, schedule: Q01DX009 (ip), vehicle: none 93 % of control | endpoint: mean survival time, dose: 80.0 mg/kg/injection, schedule: Q01DX009 (ip), vehicle: water 95 % of control | endpoint: mean survival time, dose: 80.0 mg/kg/injection, schedule: Q01DX009 (oral), vehicle: saline 103 % of control | endpoint: mean survival time, dose: 80.0 mg/kg/injection, schedule: Q01DX015 (ip), vehicle: saline 110 % of control | endpoint: mean survival time, dose: 80.0 mg/kg/injection, schedule: Q02DX005 (ip), vehicle: water 108 % of control | endpoint: mean survival time, dose: 90.0 mg/kg/injection, schedule: Q04DX004 (ip), vehicle: saline 98 % of control | endpoint: mean survival time, dose: 94.5 mg/kg/injection, schedule: Q02DX010 (ip), vehicle: carboxymethylcellulose (CMC) 109 % of control | endpoint: mean survival time, dose: 101.0 mg/kg/injection, schedule: Q02DX010 (ip), vehicle: carboxymethylcellulose (CMC) 95 % of control | endpoint: mean survival time, dose: 120.0 mg/kg/injection, schedule: Q01DX006 (ip), vehicle: saline 98 % of control | endpoint: mean survival time, dose: 120.0 mg/kg/injection, schedule: Q04DX003 (ip), vehicle: saline with Tween-80 93 % of control and 96 % of control and 102 % of control | endpoint: mean survival time, dose: 120.0 mg/kg/injection, schedule: Q## X004 (ip), vehicle: water 105 % of control | endpoint: mean survival time, dose: 128.0 mg/kg/injection, schedule: Q01DX005 (iv), vehicle: carboxymethylcellulose (CMC) 109 % of control | endpoint: mean survival time, dose: 164.0 mg/kg/injection, schedule: Q01DX002 (sc), vehicle: other 95 % of control | endpoint: mean survival time, dose: 177.6 mg/kg/injection, schedule: Q01DX001 (ip), vehicle: carboxymethylcellulose (CMC) 111 % of control | endpoint: mean survival time, dose: 180.0 mg/kg/injection, schedule: Q## X004 (ip), vehicle: water 107 % of control | endpoint: mean survival time, dose: 200.0 mg/kg/injection, schedule: Q02DX005 (ip), vehicle: saline 96 % of control | endpoint: mean survival time, dose: 200.0 mg/kg/injection, schedule: Q04DX002 (ip), vehicle: saline 110 % of control | endpoint: mean survival time, dose: 256.0 mg/kg/injection, schedule: Q01DX001 (sc), vehicle: other 101 % of control | endpoint: mean survival time, dose: 256.0 mg/kg/injection, schedule: Q01DX005 (iv), vehicle: carboxymethylcellulose (CMC) 103 % of control | endpoint: mean survival time, dose: 300.0 mg/kg/injection, schedule: Q01DX001 (ip), vehicle: Klucel (hydroxypropylcellulose) (HPC) 104 % of control | endpoint: mean survival time, dose: 320.0 mg/kg/injection, schedule: Q01DX009 (ip), vehicle: saline 94 % of control | endpoint: mean survival time, dose: 400.0 mg/kg/injection, schedule: Q04DX003 (ip), vehicle: saline 97 % of control | endpoint: mean survival time, dose: 400.0 mg/kg/injection, schedule: Q## X004 (ip), vehicle: alkali diluted with saline 109 % of control | endpoint: mean survival time, dose: 600.0 mg/kg/injection, schedule: Q01DX001 (ip), vehicle: carboxymethylcellulose (CMC) 106 % of control | endpoint: mean survival time, dose: 900.0 mg/kg/injection, schedule: Q01DX001 (ip), vehicle: water 101 % of control | endpoint: mean survival time, dose: 900.0 mg/kg/injection, schedule: Q## X004 (ip), vehicle: alkali diluted with saline 104 % of control | endpoint: median survival time, dose: 4.0 mg/kg/injection, schedule: Q01DX009 (ip), vehicle: saline 98 % of control and 100 % of control | endpoint: median survival time, dose: 8.0 mg/kg/injection, schedule: Q01DX009 (ip), vehicle: saline 98 % of control and 100 % of control | endpoint: median survival time, dose: 16.0 mg/kg/injection, schedule: Q01DX009 (ip), vehicle: saline 100 % of control and 102 % of control | endpoint: median survival time, dose: 23.0 mg/kg/injection, schedule: Q04DX003 (oral), vehicle: saline 106 % of control | endpoint: median survival time, dose: 65.0 mg/kg/injection, schedule: Q01DX005 (ip), vehicle: saline 98 % of control | endpoint: median survival time, dose: 65.0 mg/kg/injection, schedule: Q01DX009 (ip), vehicle: saline 106 % of control | endpoint: median survival time, dose: 75.0 mg/kg/injection, schedule: Q01DX001 (ip), vehicle: saline 109 % of control | endpoint: median survival time, dose: 300.0 mg/kg/injection, schedule: Q01DX001 (ip), vehicle: alkali diluted with saline 97 % of control | endpoint: median survival time, dose: 300.0 mg/kg/injection, schedule: Q04DX003 (oral), vehicle: saline 102 % of control | endpoint: median survival time, dose: 300.0 mg/kg/injection, schedule: Q04DX003 (sc), vehicle: saline 105 % of control | endpoint: median survival time, dose: 500.0 mg/kg/injection, schedule: Q04DX003 (oral), vehicle: saline 108 % of control | endpoint: median survival time, dose: 600.0 mg/kg/injection, schedule: Q01DX001 (ip), vehicle: alkali diluted with saline 101 % of control
